Source: ChEMBL document CHEMBL1201862, “PubChem BioAssay data set” (2004)
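Cells were grown in 96-well plates and exposed to each compound for 48 hours at five concentrations; endpoints were interpolated linearly between bracketing concentrations, or set to the highest concentration if not reached. GI50 = concentration required for 50% inhibition of growth.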 Calls of active or inactive are those of the source. Cut-off read from the data, not from the text of the source: active = GI50 up to about 1.1 µM and inactive = higher.

Experiments:
Experiment in all cases: DTP human tumour cell line panel, 48 h
[1] = tested on: KM12
[2] = tested on: SF-539
[3] = tested on: SK-MEL-28
[4] = tested on: MOLT-4
[5] = tested on: LOX IMVI
[6] = tested on: HL-60
[7] = tested on: CCRF-CEM
[8] = tested on: A549
[9] = tested on: DMS-114
[10] = tested on: NCI-H522
[11] = tested on: HOP-62
[12] = tested on: SR
[13] = tested on: UO-31
[14] = tested on: HOP-92
[15] = tested on: SF-268
[16] = tested on: HCT-15
[17] = tested on: RXF 393
[18] = tested on: UACC-257
[19] = tested on: HCC 2998
[20] = tested on: SNB-78
[21] = tested on: SW-620
[22] = tested on: 786-0
[23] = tested on: SK-MEL-5
[24] = tested on: RXF 631
[25] = tested on: TK-10
[26] = tested on: Malme-3M
[27] = tested on: SK-MEL-2
[28] = tested on: K562
[29] = tested on: OVCAR-4
[30] = tested on: M19-MEL
[31] = tested on: CAKI-1
[32] = tested on: XF498
[33] = tested on: SF-295
[34] = tested on: ACHN
[35] = tested on: NCI-H23
[36] = tested on: OVCAR-8
[37] = tested on: NCI-H460
[38] = tested on: U-251
[39] = tested on: SNB-19
[40] = tested on: DLD-1
[41] = tested on: OVCAR-3
[42] = tested on: HT-29
[43] = tested on: DMS-273
[44] = tested on: HCT-116
[45] = tested on: A498
[46] = tested on: SN12C
[47] = tested on: OVCAR-5
[48] = tested on: SNB-75
[49] = tested on: NCI-H226
[50] = tested on: M14
[51] = tested on: RPMI-8226
[52] = tested on: EKVX
[53] = tested on: SK-OV-3
[54] = tested on: IGROV-1
[55] = tested on: KM-20L2
[56] = tested on: LXFL 529
[57] = tested on: UACC-62

Measured: GI50

c1cc2c(cnc3cscc32)s1
inactive: [1] > 100 µM | [2] > 100 µM | [3] > 100 µM | [4] > 100 µM | [5] > 100 µM | [6] > 100 µM | [7] > 100 µM | [8] > 100 µM | [9] > 100 µM | [10] > 100 µM | [11] > 100 µM | [12] > 100 µM | [13] > 100 µM | [14] > 100 µM | [15] > 100 µM | [17] > 100 µM | [18] > 100 µM | [19] > 100 µM | [20] > 100 µM | [21] > 100 µM | [22] > 100 µM | [23] > 100 µM | [24] > 100 µM | [25] > 100 µM | [26] > 100 µM | [27] > 100 µM | [28] > 100 µM | [29] > 100 µM | [30] > 100 µM | [31] 95.5 µM | [32] 11 µM | [33] > 100 µM | [34] > 100 µM | [35] > 100 µM | [36] > 100 µM | [37] > 100 µM | [38] > 100 µM | [39] > 100 µM | [40] > 100 µM | [41] > 100 µM | [42] > 100 µM | [43] > 100 µM | [44] > 100 µM | [45] > 100 µM | [46] > 100 µM | [47] > 100 µM | [48] 57.7 µM | [49] > 100 µM | [50] > 100 µM | [51] > 100 µM
> 100 µM: [16]

O=C(/C=C/c1ccc(O)cc1)OC[C@@H](O)COC1OC(CO)C(O)C(O)C1O (some centres not stated)
inactive: [1] > 100 µM | [52] > 100 µM | [3] > 100 µM | [4] > 100 µM | [6] > 100 µM | [7] > 100 µM | [8] > 100 µM | [9] > 100 µM | [10] > 100 µM | [11] > 100 µM | [12] > 100 µM | [13] > 100 µM | [14] > 100 µM | [17] > 100 µM | [18] > 100 µM | [53] > 100 µM | [20] > 100 µM | [24] > 100 µM | [25] > 100 µM | [28] > 100 µM | [30] > 100 µM | [33] > 100 µM | [34] > 100 µM | [35] > 100 µM | [36] > 100 µM | [37] > 100 µM | [38] > 100 µM | [39] > 100 µM | [54] > 100 µM | [42] > 100 µM | [44] > 100 µM | [45] > 100 µM | [47] > 100 µM | [49] 94.2 µM | [50] > 100 µM

CCOC(=O)C1=C(C)N(NC(=O)c2ccccc2)C2(O)CCCC12C(=O)OCC (configuration not stated)
inactive: [1] > 100 µM | [2] > 100 µM | [52] > 100 µM | [3] > 100 µM | [4] > 100 µM | [5] > 100 µM | [6] > 100 µM | [8] > 100 µM | [9] > 100 µM | [10] > 100 µM | [55] > 100 µM | [56] > 100 µM | [11] > 100 µM | [12] 73.3 µM | [13] > 100 µM | [15] > 100 µM | [17] > 100 µM | [18] > 100 µM | [53] > 100 µM | [19] > 100 µM | [21] > 100 µM | [22] > 100 µM | [23] > 100 µM | [24] > 100 µM | [26] > 100 µM | [27] > 100 µM | [57] > 100 µM | [28] > 100 µM | [29] > 100 µM | [30] > 100 µM | [31] > 100 µM | [32] 55 µM | [33] > 100 µM | [34] > 100 µM | [36] > 100 µM | [37] > 100 µM | [38] > 100 µM | [39] > 100 µM | [54] > 100 µM | [41] > 100 µM | [42] > 100 µM | [43] > 100 µM | [44] > 100 µM | [45] > 100 µM | [46] > 100 µM | [47] > 100 µM | [48] 40.1 µM | [49] > 100 µM | [50] > 100 µM | [51] > 100 µM
> 100 µM: [16]
